{"source": "patent US8455186B2", "about": "“Method of detection of microorganisms with enhanced bacteriophage amplification” (priority 2007, dated 2013)", "key": {"S. aureus strains [1]": {"system": "S. aureus strains", "assay": "Stimulation of bacteriophage amplification by fatty acid compounds, all hosts tested", "details": "for effect on bacteriophage amplification: fatty acid compound added to growth medium"}, "[2]": {"system": "panel of 32 S. aureus strains", "assay": "Bacteriophage sensitivity versus sodium pyruvate concentration (FIG. 4)"}, "S. aureus strains [3]": {"system": "S. aureus strains", "assay": "Bacteriophage mean amplification versus sodium pyruvate concentration (FIG. 5)", "format": "cell-based, Staphylococcus aureus"}, "[4]": {"system": "clinical isolates of S. aureus (good bacteriophage hosts)", "assay": "Bacteriophage amplification on permissive (good) S. aureus hosts with lauric acid (FIG. 2)"}, "[5]": {"system": "clinical isolates of S. aureus (poorest hosts for bacteriophage amplification)", "assay": "Bacteriophage amplification (MP112 and MP115) on poor or restrictive S. aureus hosts with lauric acid (FIG. 1)", "text": "The 28 strains in this study were chosen from a collection of 202 clinical isolates as the poorest hosts for bacteriophage amplification."}, "[6]": {"system": "clinical MRSA (methicillin-resistant S. aureus) isolates", "assay": "Phage amplification in MRSA strains with cefoxitin and/or lauric acid (FIG. 3)", "text": "In FIG. 3, each symbol represents a clinical MRSA (methicillin-resistant S. aureus) isolate able to grow in the presence of β-lactam antibiotics such as cefoxitin. The first column 62 (circles) indicates amplification by MRSA strains with no cefoxitin and no lauric acid. The second column 64 (squares) indicates amplification with added cefoxitin. […] The third column 66 (diamonds) indicates amplification with added lauric acid. The fourth column 70 (x's) indicate amplification with added lauric acid and cefoxitin."}}}
{"smiles": "CCCCCC(=O)O", "note": "[caproic acid]", "values": [{"measurement": "effect on bacteriophage amplification", "setting": "S. aureus strains [1]", "result": "positively stimulate bacteriophage amplification"}]}
{"smiles": "CCCCCCCC/C=C\\CCCCCCCC(=O)O", "note": "[oleic acid]", "values": [{"measurement": "effect on bacteriophage amplification", "setting": "S. aureus strains [1]", "result": "positively stimulate bacteriophage amplification"}]}
{"smiles": "CC(=O)C(=O)[O-].[Na+]", "note": "[sodium pyruvate]", "values": [{"measurement": "effect on phage sensitivity", "setting": "[2]; 10 mmol/L to 50 mmol/L sodium pyruvate, wide variety of S. aureus strains", "result": "significantly increase phage sensitivity"}, {"measurement": "phage sensitivity", "setting": "[2]; 15 mmol/L to 31 mmol/L sodium pyruvate", "result": "above 90%"}, {"measurement": "increase of sensitivity over sensitivities without sodium pyruvate", "setting": "[2]; 27 mmol/L sodium pyruvate", "result": "about 15%"}, {"measurement": "effect on mean amplification of the bacteriophage", "setting": "S. aureus strains [3]; about 10 mmol/L to 60 mmol/L sodium pyruvate", "result": "increased significantly"}, {"measurement": "mean amplification of the bacteriophage", "setting": "S. aureus strains [3]; about 30 mmol/L sodium pyruvate, about 92 without", "result": 150}]}
{"smiles": "CCCCCCCCCCCC(=O)O", "note": "[lauric acid]", "values": [{"measurement": "effect on bacteriophage amplification on permissive S. aureus hosts", "setting": "[4]; FIG. 2 legend", "result": "increases bacteriophage amplification"}, {"measurement": "average amplification", "setting": "[4]; with the addition of lauric acid (5-30 μg/ml), good hosts, 69-fold without", "result": "over 100 fold"}, {"measurement": "average level of amplification (output pfu/ml divided by input pfu/ml)", "setting": "[5]; 30 μg/ml lauric acid, 28 poor-host strains, four hours at 35°, three-fold with no lauric acid", "result": 45, "unit": "fold"}, {"measurement": "effect on amplification on poor or restrictive S. aureus hosts", "setting": "[5]; FIG. 1 legend", "result": "improves amplification"}, {"measurement": "effect on phage amplification in MRSA strains", "setting": "[6]; added lauric acid and cefoxitin", "result": "relieves suppression of phage amplification by cefoxitin"}, {"measurement": "S. aureus strains tested showing stimulation of bacteriophage amplification", "setting": "S. aureus strains [1]; in response to lauric acid, strains tested to date", "result": "more than 80%"}]}
{"smiles": "CCCCCCCCCCCC(=O)OCC(O)CO", "note": "(stereo not shown) [glycerol monolaurate]", "values": [{"measurement": "effect on bacteriophage amplification", "setting": "S. aureus strains [1]", "result": "positively stimulate bacteriophage amplification"}]}
{"smiles": "CCCCCCCC(=O)O", "note": "[caprylic acid]", "values": [{"measurement": "effect on bacteriophage amplification", "setting": "S. aureus strains [1]", "result": "positively stimulate bacteriophage amplification"}]}
{"smiles": "CO[C@@]1(NC(=O)Cc2cccs2)C(=O)N2C(C(=O)O)=C(COC(N)=O)CS[C@@H]21", "note": "[cefoxitin, reference compound]", "values": [{"measurement": "effect on phage amplification in MRSA strains", "setting": "[6]; added cefoxitin, no lauric acid", "result": "suppression of phage amplification"}]}
{"smiles": "CCCCC/C=C\\C/C=C\\CCCCCCCC(=O)O", "note": "[linoleic acid]", "values": [{"measurement": "effect on bacteriophage amplification", "setting": "S. aureus strains [1]", "result": "positively stimulate bacteriophage amplification"}]}
{"smiles": "CCCCCCCCCC(=O)O", "note": "[capric acid]", "values": [{"measurement": "effect on bacteriophage amplification", "setting": "S. aureus strains [1]", "result": "positively stimulate bacteriophage amplification"}]}
{"smiles": "CCCCCCCCCCCCCC(=O)O", "note": "[myristic acid]", "values": [{"measurement": "effect on bacteriophage amplification", "setting": "S. aureus strains [1]", "result": "positively stimulate bacteriophage amplification"}]}
